Assays:
Acorus calamus = experiment: Herbicidal performance, leaf spray under air and sunlight; assay type: in vivo; settings: for state of leaves 24 hours after spraying: various concentrations (1, 2, 4, 8 times PQ equivalent), air and sunlight
Text: (§1) As is well-known, Bermuda grass, Arabidopsis thaliana, and Acorus calamus are naturalized green weeds in most parts of the world and are also invasive grasses. Photosynthesis occurs throughout their entire leaves and bundles. […] Therefore, Bermuda grass, Acorus calamus, and Arabidopsis thaliana were selected as plant models to evaluate the herbicidal performance of the compounds in the present invention.
(§2) Under air and sunlight, the compound of formula 2 of the present invention was sprayed on the leaf surface at concentrations of 1, 2, 4, and 8 times the PQ equivalent, respectively. Paraquat herbicide was used as the positive control, and physiological saline was used as the blank control group. The diameter of the observation range was 8 cm.

Arabidopsis thaliana [1] = experiment: as above; assay type: in vivo; settings: for state of leaves 24 hours after spraying: various concentrations (1, 2, 4, 8 times PQ equivalent), air and sunlight
Text: as §1, §2

Bermuda grass [2] = experiment: as above; assay type: in vivo; settings: for state of leaves 24 hours after spraying: various concentrations (1, 2, 4, 8 times PQ equivalent), air and sunlight
Text: as §1, §2

mice [3] = experiment: PQ-induced lethality in mice, single intraperitoneal injection, dose and timing finding; assay type: in vivo
Protocol: Firstly, the optimal dose and timing for PQ-induced lethality in mice were determined through single intraperitoneal injection at doses of 20, 30, 40, 50, and 60 (mg/kg). […] Therefore, 50 mg/kg was chosen as the optimal dose. The mouse tissue samples were collected 48 hours after PQ administration.

mice [4] = experiment: Acute toxicity test and LD50 determination in mice, intraperitoneal injection; assay type: in vivo
Protocol: (§3) In order to evaluate the safety of compound 2 of the present invention in vivo, acute toxicity tests were conducted on mice. Firstly, the LD50 of diene diamine in mice was measured. […] The toxicity of diene diamine in mice is low and the safety is high.

mice [5] = experiment: Survival rate and body weight of mice after intraperitoneal injection; assay type: in vivo; settings: 0.19 mmol/kg intraperitoneal
mice [6] = experiment: Organ indices and biochemical indicators 48 hours after intraperitoneal injection in mice; assay type: in vivo; settings: for levels of SOD and CAT in lung tissue / serum levels of TNF-α, IL-B, IL-6, AST, ALT, SCr, BUN, and uric acid: 50 mg/kg paraquat or same dose, 48 hour; for lung, liver, and kidney indices compared with the control group / cardiac index: 50 mg/kg paraquat or same molar dose, 48 hours; for cardiac index: among the three groups
Text: P<0.05 is considered statistically significant, with 10 mice per group (n=10).
However, no significant differences in these biochemical indicators were detected after intraperitoneal injection of the compound of formula 2 diene diamine at the same molar concentration.

mice [7] = experiment: Damage of major organs (histopathology) 48 hours after intraperitoneal injection in mice; assay type: in vivo; settings: 48 hours after intraperitoneal administration
Text: The data is expressed as mean±standard error, with 6 mice per group (n=6), and P<0.05 indicates statistically significant differences. Scale bar: 50 μm.

mice [8] = experiment: Transmission electron microscopy of main organs 48 hours after intraperitoneal injection in mice; assay type: in vivo; settings: 0.19 mmol/kg intraperitoneal
Protocol: 48 hours after intraperitoneal injection of 0.19 mmol/kg of paraquat or the compound of formula 2, transmission electron microscopy samples of the lung, liver, kidney, and heart were collected. The black arrow indicated mitochondrial damage, and the electron microscopy scale of the heart group was 200 nm, and the electron microscope scale of other groups was 100 nm.

A549 cells [9] = experiment: Direct cytotoxicity, cell viability and IC50; assay type: cell-based; settings: for cell viability: A549, co-culture 24 hours, concentration gradient
Text: (§4) PQ is rapidly absorbed and distributed to the lungs, kidneys, liver, and muscles after entering the human body. Death caused by ingestion of PQ is usually due to multiple organ failure, such as pulmonary edema, kidney and liver failure. Therefore, lung cells (A549 cells), kidney cells (COS-7), and liver cells (Hep G2) were selected to evaluate the direct cytotoxicity of diene diamine.

COS-7 cells [10] = experiment: Direct cytotoxicity, cell viability and IC50; assay type: cell-based; settings: for cell viability: COS-7, co-culture 24 hours, concentration gradient
Text: as §4

Hep G2 cells [11] = experiment: Direct cytotoxicity, cell viability and IC50; assay type: cell-based; settings: for cell viability: Hep G2, co-culture 24 hours, concentration gradient
Text: as §4

A549 cells [12] = experiment: Intracellular ROS levels, DCF fluorescence, flow cytometry; assay type: cell-based; settings: 100 μM, 18 hours
Protocol: (§5) The above three types of cells were exposed to 100 μM PQ (100) and 100 μM of the compound of formula 2 and incubated for 18 hours, and the intracellular reactive oxygen species (ROS) levels were quantified using flow cytometry. Intracellular ROS levels were measured using DCF fluorescence (n=6).

COS-7 cells [13] = experiment: as above; assay type: cell-based; settings: 100 μM, 18 hours
Protocol: as §5

Hep G2 cells [14] = experiment: as above; assay type: cell-based; settings: 100 μM, 18 hours
Protocol: as §5

humans = settings: background data; cited from earlier work
Bermuda grass [15] = experiment: Herbicidal performance of the compound of formula 3, leaf spray, diquat as positive control; assay type: in vivo; settings: air and sunlight
Text: Under air and sunlight, the compound of formula 3 of the present invention was sprayed on the surface of leaves, with herbicide diquat as a positive control. The diameter of the observation range was 10 cm.

[16] = Conversion of the compound of formula 2 to PQ under lighting and air conditions in physiological saline; assay type: physicochemical; settings: air; for Yield (conversion to PQ): darkness, 72 h; for Yield (conversion rate to PQ): natural light, 24 h
[17] = Acute toxicity test and LD50 determination in mice, intraperitoneal injection; assay type: in vivo; settings: mouse, in vivo, ip; mice, intraperitoneal injection, seventh day
Protocol: as §3

[18] = Direct cytotoxicity, cell viability and IC50; assay type: cell-based; settings: 24 hours
Text: as §4

A549 cells [19] = experiment: Apoptosis, Annexin V-FITC and propidium iodide staining; assay type: cell-based; settings: 24 hours of incubation
Text: (§6) The data was expressed as + SEM. *p<0.05, p<0.05, **p<0.01, ***p<0.001, ****p<0.0001.

COS-7 cells [20] = experiment: as above; assay type: cell-based; settings: 24 hours of incubation
Text: as §6

Hep G2 cells [21] = experiment: as above; assay type: cell-based; settings: 24 hours of incubation
Text: as §6

Arabidopsis thaliana [22] = experiment: Herbicidal mechanism: LC-MS, chlorophyll and photosystem parameters, electron microscopy after spraying; assay type: in vivo
[23] = 300 mg/kg intraperitoneal, 8 mice
[24] = 600 mg/kg intraperitoneal, 8 mice
[25] = 900 mg/kg intraperitoneal, 8 mice
[26] = 1050 mg/kg intraperitoneal, 8 mice
[27] = 1200 mg/kg intraperitoneal, 8 mice
[28] = 25 °C, listed as diene diamine compound

C[n+]1ccc(-c2cc[n+](C)cc2)cc1.[Cl-].[Cl-] [PQ, 1,1-dimethyl-4,4′-bipyridinium dichloride, reference compound]
state of leaves 24 hours after spraying (Acorus calamus): began to wither | state of leaves 24 hours after spraying (Arabidopsis thaliana [1]): began to wither | state of leaves 24 hours after spraying (Bermuda grass [2]): began to wither | lung injury score (mice [3]; 24 hours after PQ administration): significant increase | time point of the highest lung injury score (mice [3]; compared to other time points): 48 h | survival time (mice [3]; single intraperitoneal injection, 20 and 30 mg/kg, all mice): over 168 hours | body weight on the first day (mice [3]; single intraperitoneal injection, 50 or 60 mg/kg): significant weight loss | Mortality, n (%) Day 1 (mice [4]; [23]): 0 (0) n (%) | Mortality, n (%) Day 7 (mice [4]; [23]): 0 (0) n (%) | Mortality, n (%) Day 1 (mice [4]; [24]): 0 (0) n (%) | Mortality, n (%) Day 7 (mice [4]; [24]): 0 (0) n (%) | Mortality, n (%) Day 1 (mice [4]; [25]): 3 (37.5) n (%) | Mortality, n (%) Day 7 (mice [4]; [25]): 3 (37.5) n (%) | Mortality, n (%) Day 1 (mice [4]; [26]): 3 (37.5) n (%) | Mortality, n (%) Day 7 (mice [4]; [26]): 3 (37.5) n (%) | Mortality, n (%) Day 1 (mice [4]; [27]): 8 (100) n (%) | Mortality, n (%) Day 7 (mice [4]; [27]): 8 (100) n (%) | weight of the mice (mice [5]): continued to decrease | mice died (mice [5]; within 112 hours after administration): 100% | levels of SOD and CAT in lung tissue (mice [6]): significantly decreased | serum levels of TNF-α, IL-B, IL-6, AST, ALT, SCr, BUN, and uric acid (mice [6]): significantly increased | lung, liver, and kidney indices compared with the control group (mice [6]): significantly increased | cardiac index (mice [6]): no statistical difference | pathological damage of major tissues (lung, liver, kidney, heart) (mice [7]): multiple organic damages accompanied by significant inflammation | tissue damage scores of the main organs (mice [7]): significantly higher than those in the control group and the diene diamine group | mitochondrial structure in lung, liver, kidney, and heart tissues (transmission electron microscopy) (mice [8]): mitochondrial damage such as swelling, vacuolization, blurring, or fragmentation | cell viability (A549 cells [9]): direct cytotoxic effects | IC50 (A549 cells [9]; A549 cells, 24 hours): 322 µM | cell viability (COS-7 cells [10]): direct cytotoxic effects | IC50 (COS-7 cells [10]; Cos-7 cells, 24 hours): 114 µM | cell viability (Hep G2 cells [11]): direct cytotoxic effects | IC50 (Hep G2 cells [11]; hep G2 cells, 24 hours): 131 µM | intracellular ROS production (A549 cells [12]): significant increase in ROS production | intracellular ROS production (COS-7 cells [13]): significant increase in ROS production | intracellular ROS production (Hep G2 cells [14]): significant increase in ROS production | mortality rate of toxic ingestion incidents (humans): 50-90%

C1=CCN2CCN3CC=CCC3C2C1 (stereo not drawn) [compound of formula 3, 1,4,6,7,9,12,12a, 12b octahydrodipyridin [1,2-a: 2′, 1′-c]pyrazine]
weed control effect relative to diquat (Bermuda grass [15]): comparable to that of diquat | state of leaves 3 days after spraying (Bermuda grass [15]; concentration not specified): began to wither | state of leaves after 5 days (Bermuda grass [15]; concentration not specified): completely withered

CN1CC=C(C2=CCN(C)CC2)CC1 [compound of formula 2, 1,1′-dimethyl-1,1′, 2,2′, 3,3′, 6,6′-octahydro-4,4′-bipyridine]
Yield (conversion to PQ) ([16]; 25 °C): 0% | Yield (conversion to PQ) [16, 28]: hardly converted to PQ | Yield (conversion rate to PQ) ([16]; 25 °C): 30% | Yield (conversion rate to PQ) [16, 28]: about 30% | Yield (conversion rate to PQ) ([16]; 40 °C): 63% | Yield (conversion rate to PQ) ([16]; 40 °C, listed as diene diamine compound): about 63% | weed control effect compared with PQ (Acorus calamus; same or twice the dose of PQ): slightly delayed weed control effect | state of leaves 24 hours after spraying (Acorus calamus): began to wither | weed control effect compared with PQ (Arabidopsis thaliana [1]; same or twice the dose of PQ): slightly delayed weed control effect | state of leaves 24 hours after spraying (Arabidopsis thaliana [1]): began to wither | weed control effect compared with PQ (Bermuda grass [2]; same or twice the dose of PQ): slightly delayed weed control effect | state of leaves 24 hours after spraying (Bermuda grass [2]): began to wither | LD50 at 7 day [17]: 1000 mg/kg | deaths (mice [4]; [27]): Eight mice died | survival (mice [4]; 300 and 600 mg/kg intraperitoneal, third day after administration): all mice survived | deaths (mice [4]; 900 and 1050 mg/kg intraperitoneal, respectively, 8 mice per dose): Three mice died | weight of the mice (mice [5]): continued to steadily increase | survival (mice [5]; after 168 hours): all mice in the group of the compound of formula 2 survived | levels of SOD and CAT in lung tissue (mice [6]): no significant changes | serum levels of TNF-α, IL-B, IL-6, AST, ALT, SCr, BUN, and uric acid (mice [6]): no significant changes | lung, liver, and kidney indices compared with the control group (mice [6]): no statistical difference | cardiac index (mice [6]): no statistical difference | pathological damage of major tissues (lung, liver, kidney, heart) (mice [7]): no significant pathological damage | mitochondrial structure in lung, liver, kidney, and heart tissues (transmission electron microscopy) (mice [8]): No significant mitochondrial structural damage | IC50 ([18]; African green monkey, Cos-7 cells): 1570 µM | IC50 ([18]; human, A549 cells): 5770 µM | IC50 ([18]; human, hep G2 cells): 1360 µM | cell viability (A549 cells [9]): no significant changes in cell viability | IC50 value relative to the PQ treatment group (A549 cells [9]; A549 cells): increased by dozens of times | cell viability (COS-7 cells [10]): no significant changes in cell viability | IC50 value relative to the PQ treatment group (COS-7 cells [10]; COS-7 cells): increased by dozens of times | cell viability (Hep G2 cells [11]): no significant changes in cell viability | IC50 value relative to the PQ treatment group (Hep G2 cells [11]; Hep G2 cells): increased by dozens of times | intracellular ROS production (A549 cells [12]): no significant changes | intracellular ROS production (COS-7 cells [13]): no significant changes | intracellular ROS production (Hep G2 cells [14]): no significant changes | apoptosis rate compared to the PQ group (A549 cells [19]): significantly reduced | apoptosis rate compared to the PQ group (COS-7 cells [20]): significantly reduced | apoptosis rate compared to the PQ group (Hep G2 cells [21]): significantly reduced | electron microscopy findings after 8 hours (Arabidopsis thaliana [22]): chloroplast stroma lysis, swelling of thylakoids and mitochondrial cristae | electron microscopy findings after 24 hours (Arabidopsis thaliana [22]): rupture of mesophyll cell nuclei, mitochondria, and chloroplast envelopes | chlorophyll content, maximum fluorescence quantum yield of PSII, Fv/Fm value, and SPAD (Arabidopsis thaliana [22]; natural sunlight and air): significant decreases

Source: patent US20260215427A1, “NON-BIPYRIDYL SALT HERBICIDE, PREPARATION METHOD THEREFOR, AND USE THEREOF” (priority 2022, published 2026)
